Experimental data reported in patent US20230226040A1, “COMBINATION THERAPY COMPRISING AN FGFR INHIBITOR AND A KRAS INHIBITOR” (Incyte Corporation, priority 2021, published 2023).

Tests used:
Assay type in all cases: cell-based
[1] = tested on: H358; test: 5-day Cell Titer Glo combination matrix, Bliss score; details: H358 (Lung, Epithelial), 5 days
Procedure: (§3) Cells were seeded in RPMI medium with 10% HI FBS at a density of 500 cells/well in Greiner, white, clear bottom, 384-well tissue culture treated plates containing 10×10 combination matrices of compound. Plates were incubated at 37° C., 5% CO2 for 5 days. On day 5, Cell Titer Glo reagent was added to the plates and ATP luminescence was detected using a Pherastar FSX reader. The synergy score for the combination effect was calculated using a Bliss score model where the Bliss score=Yab-(Ya+Yb−(YaYb))×100, where Ya and Yb are the monotherapies. Bliss scores >20 are strongly synergistic and a higher Bliss scores indicates a higher level of synergism.
(§4) Cells were seeded in RPMI medium with 10% HI FBS at a density of 500 cells/well in Greiner, white, clear bottom, 384-well tissue culture treated plates containing 10×10 combination matrices of compound. Plates were incubated at 37° C., 5% CO2 for 5 days. On day 5, Cell Titer Glo reagent was added to the plates and ATP luminescence was detected using a Pherastar FSX reader. Synergy score for the combination effect is calculated using a Bliss score model where the Bliss score=Yab−(Ya+Yb−(YaYb))×100, where Ya and Yb are the monotherapies. Bliss scores >20 are strongly synergistic and a higher Bliss scores indicates a higher level of synergism.
(§5) Cells were seeded in RPMI medium with 10% HI FBS at a density of 500 cells/well in Greiner, white, clear bottom, 384-well tissue culture treated plates containing 10×10 combination matrices of compound. Plates were incubated at 37° C., 5% CO2 for 5 days. On day 5, Cell Titer Glo reagent was added to the plates and ATP luminescence was detected using a Pherastar FSX reader. The synergy score for the combination effect was calculated using a Bliss score model where the Bliss score=Yab−(Ya+Yb−(YaYb))×100, where Ya and Yb are the monotherapies. Bliss scores >20 are strongly synergistic and a higher Bliss scores indicates a higher level of synergism.

[2] = tested on: LU-99; test: as above; details: LU-99 (Lung, Mesenchymal); FGFR inhibitor in combination with Cmpd 3; 5 days
Procedure: as §4, §5

[3] = tested on: SW-1573; test: as above; details: SW-1573 (Lung, Mesenchymal), 5 days
Procedure: as §3, §4, §5

[4] = tested on: H1792; test: as above; details: H1792 (Lung, Mesenchymal), 5 days
Procedure: as §3, §4, §5

[5] = tested on: LU99 cells; test: siRNA FGFR knockdown plus KRAS G12C inhibitor, Cell Titer Glo proliferation; details: in the absence of FGFR1 or FGFR4; 120 h
Procedure: Knockdown efficiency was assessed by Western blot and its effect was measured by cell proliferation inhibition.
(§1) The lyophilized siRNA pools or individuals (Dharmacon ON-TARGET plus siRNA from Horizon Discovery) were reconstituted by combining 1× siRNA buffer (200 μL) with lyophilized siRNA (20 nmol); or combining 1× siRNA buffer (100 μL) with lyophilized siRNA (10 nmol). Dharmafect Reagent 1 was prepared at a 1:200 dilution in 1X siRNA buffer. One tube of diluted reagent was prepared for each siRNA dilution. To each tube, the appropriate siRNA was added to Dharmafect Reagent 1 at a 1:400 dilution. The prepared siRNA reagent (25 per well) was added to the appropriate number of wells on a 96-well clear bottom Greiner plate and incubated at room temperature for 30 min.
For plating in 96-well pates, 2000 LU99 cells per well in 100 μL of medium were prepared. The prepared cells (100 μL per well) were added to each well of the 96-well plate and incubated at 48 h.
(§2) Compound plates were prepared with a compound starting concentration of 5 mM in a 3-fold dilution. Following 48 h transfection incubation, the appropriate compounds were added to the 96-well plate at a final starting concentration of 5 μM in 3-fold dilution (11 point dose response curve). After addition of the compounds, the 96-well plates were incubated at 37° C. for 120 h. After this time, Cell Titer Glo reagent is reconstituted and 100 μL of reagent was added per well. The plates were tapped gently and luminescence was read on a Pherastar microplate reader.

[6] = tested on: Calu-1; test: 5-day Cell Titer Glo combination matrix, Bliss score; details: Calu-1 (Lung, Mesenchymal); KRAS inhibitor in combination with pemigatinib; 5 days
Procedure: as §3

[7] = tested on: HCC-44; test: as above; details: HCC-44 (Lung, Mesenchymal); KRAS inhibitor in combination with pemigatinib; 5 days
Procedure: as §3, §5

[8] = tested on: SW-837; test: as above; details: SW-837 (CRC, Epithelial); KRAS inhibitor in combination with pemigatinib; 5 days
Procedure: as §3, §5

[9] = tested on: A427 cells; test: siRNA FGFR knockdown plus KRAS G12D inhibitor, Cell Titer Glo proliferation; details: FGFR1 isoform knocked down; 120 h
Procedure: To further evaluate the KRAS/FGFR combination mechanism of action, siRNA FGFR knockdown experiments were conducted in A427 cells, followed by treatment with KRAS G12D inhibitors Compound 5, Compound 6, and Compound 7. Knockdown efficiency was assessed by Western blot (FIG. 13A) and its effect was measured by cell proliferation inhibition (FIGS. 13B-G). Initially, the effect of single FGFR isoforms knockdown in combination with KRAS G12D inhibitors Compound 5 (FIG. 13B), Compound 6 (FIG. 13D) and Compound 7 (FIG. 13F) was assessed. […] In addition, combining FGFR1 knockdown with knockdown of additional FGFR isoforms further increased the effect of KRAS G12D inhibitors (FIGS. 13C, E and G)
as §1, with “or combining lx siRNA buffer” for “or combining 1× siRNA buffer”, “dilution in 1× siRNA buffer.” for “dilution in 1X siRNA buffer.”, “reagent (25 μL per well)” for “reagent (25 per well)”
For plating in 96-well pates, 2000 A427 cells per well in 100 !IL of medium were prepared. The prepared cells (100 !IL per well) were added to each well of the 96-well plate and incubated at 48 h.
as §2, with “5μM” for “5 μM”, “After this time, Cell Titer Glo reagent is reconstituted and 100 μL of reagent was added per well.” left out

[10] = FGFR inhibitor in combination with Cmpd 3
[11] = KRAS inhibitor in combination with pemigatinib

SMILES	Avg. Bliss Score [1, 10]	Avg. Bliss Score [2]	Avg. Bliss Score [3, 10]	Avg. Bliss Score [4, 10]	inhibition of A427 cell proliferation after siRNA knockdown [9]	also measured
CCN1CCN(c2ccc(Nc3cc(N(C)C(=O)Nc4c(Cl)c(OC)cc(OC)c4Cl)ncn3)cc2)CC1 [BGJ398]	−0.8	31.9	7.5	11.2		
CN(C)C1(C)CN(c2nc3c(F)c(-c4ccc(F)c5cccnc45)c(C(F)(F)F)cc3c3c2nnn3[C@H]2CCN(C(=O)/C=C/CF)[C@H](CC#N)C2)C1 [Compound 3, 2-((2S,4S)-4-(4-(3-(dimethylamino)-3-methylazetidin-1-yl)-6-fluoro-7-(5-fluoroquinolin-8-yl)-8-(trifluoromethyl)-1H-[1,2,3]triazolo[4,5-c]quinolin-1-yl)-1-((E)-4-fluorobutenoyl)piperidin-2-yl)acetonitrile]						Avg. Bliss Score [1, 11]: 3.8; inhibition of LU99 cell proliferation after siRNA knockdown [5]: higher inhibition in proliferation; Avg. Bliss Score [6]: 8.7; Avg. Bliss Score [7]: 5.8; Avg. Bliss Score [3, 11]: 18.6; Avg. Bliss Score [8]: 0.9; Avg. Bliss Score [4, 11]: 28.5
C=CC(=O)N1CC[C@H](n2ncc3c(N4CC(N(C)C)C4)nc4c(F)c(-c5c(C)c(Cl)cc6[nH]ncc56)c(Cl)cc4c32)C[C@H]1CC#N [Compound 4, 2-((2S,4S)-1-acryloyl-4-(8-chloro-7-(6-chloro-5-methyl-1H-indazol-4-yl)-4-(3-(dimethylamino)azetidin-1-yl)-6-fluoro-1H-pyrazolo[4,3-c]quinolin-1-yl)piperidin-2-yl)acetonitrile]						Avg. Bliss Score [1, 11]: −3; Avg. Bliss Score [6]: −9.9; Avg. Bliss Score [7]: 4.7; Avg. Bliss Score [3, 11]: 17; Avg. Bliss Score [8]: −11.7; Avg. Bliss Score [4, 11]: 30
Cc1cc2c(-n3cncn3)nc3c(F)c(-c4cc(O)cc5ccc(F)cc45)c(CCC#N)cc3c2n1[C@H]1[C@H]2CN[C@@H]1C2 [Compound 5, 3-(1-((1R,4R,5S)-2-Azabicyclo[2.1.1]hexan-5-yl)-6-fluoro-7-(7-fluoro-3-hydroxynaphthalen-1-yl)-2-methyl-4-(1H-1,2,4-triazol-1-yl)-1H-pyrrolo[3,2-c]quinolin-8-yl)propanenitrile]					higher inhibition in proliferation compared to controls	
CC(=O)N1CCC[C@@H]1c1cc2c(O[C@@H](C)[C@@H]3CCCN3C)nc3c(F)c(-c4cccc5c4C(C#N)CCC5)c(C)cc3c2n1[C@H]1[C@H]2CN[C@@H]1C2 (stereo partly shown) [Compound 6]					higher inhibition in proliferation compared to controls	
CCOc1nc2c(F)c(-c3cc(O)cc4ccccc34)c(CCC#N)cc2c2c1cc(CN1CCN(CC)CC1=O)n2[C@H]1[C@H]2CN[C@@H]1C2 [Compound 7]					higher inhibition in proliferation compared to controls	
COc1cc(OC)cc(N(CCNC(C)C)c2ccc3ncc(-c4cnn(C)c4)nc3c2)c1 [Erdafitinib]	4.4	34.7	7.9	12.9		
C=CC(=O)N1CC[C@H](n2nc(C#Cc3cc(OC)cc(OC)c3)c3c(N)ncnc32)C1 [TAS-120]	3.3	22	6.6	17.4		
